Measured values published in PMC11986975, “A Cdk5 inhibitor restores cognitive function and alleviates type 2 diabetes in mice” (iScience, 2025).

Assays:
HFD-fed mice [1] = assay: Glucose tolerance test (GTT) in HFD mice; type: in vivo; settings: i.p., both dosages 20 and 40 mg/kg/day, 20 days
Method: For the glucose tolerance test, 2 g/kg of glucose was utilized, and 0.75U/kg of human insulin was employed The glucose tolerance test (GTT) and insulin tolerance test (ITT) were performed in HFD mice models after 20 weeks of HFD feeding followed by 20 days of drug administration.[48] For GTT the mice were kept in a fasting period for overnight before glucose injections of 2 g/kg intraperitoneally. For ITT the mice were kept in a fasting for 6 h prior to insulin injection of 0.75 U/kg intraperitoneally. A one-touch glucometer was used to assess the blood sugar levels at various intervals (0, 60, and 120 min) following intraperitoneal infusion of both glucose and insulin.[23]^,[49]^,[50]^,[51] After 20 weeks of a HFD and 20 days of drug administration, the tests were carried out.

HFD-fed mice [2] = assay: Grip strength test in HFD mice; type: in vivo; settings: i.p., 40 mg/kg/day, 20 days
Method: A grip strength meter was used to measure the forelimb grip strength in mice.[54] The mouse was given a chance to grab the gauge with its forelimbs before having its tail gently pulled back. Digital transducers were used to record the muscular force. Five trials were conducted on each mouse.[23]

[3] = MTT cell toxicity assay in N2A cells; type: cell-based; settings: mouse, N2A (Neuro2A) cells, all doses (25 to 100 μM)
Method: HEK293T, HepG2, and N2A cells were used in the study representing kidney, liver and neuronal cell lines respectively. The cells were cultured in DMEM supplemented with 10% fetal bovine serum and antibiotics at 37°C under 5% CO2. The cells were tested negative for mycoplasma.
To evaluate the compound toxicity for the Cdk5 inhibitors, an MTT assay was performed in HEK293T, HepG2, and N2A cells at varying concentrations. Six hours after cell seeding, the compounds were added in different amounts, and the cells were harvested after 24 h for further analysis. N2A cells were transfected using Lipofectamine-3000 reagent, co-transfecting with plasmids encoding Cdk5/p35 and Cdk5/p25 for 12 h, followed by inhibitor treatment to assess their effects in the cell culture system. The concentrations of each plasmids used was 1 μg, total of 3 μg per well for 6 well plates.

CDK5 = tested on: T1, CDK5; assay: Cdk5 kinase activity of Cdk5 pulled down from hippocampus lysate of treated HFD mice; type: in vivo; settings: i.p., 20 days, in the presence of p25
T1 construct: Cdk5 kinase activity using pulled down Cdk5 from the hippocampus lysate of the mouse groups; from tissue; host or cells: hippocampus / brain lysate of male C57BL/6J mice on high-fat diet
Method: Cdk5 was immunoprecipitated from N2A cells and brain lysate using a Cdk5 antibody. Kinase assays were performed using a Promega ADP-Glo Kinase Assay kit with Cdk5/p35 and Cdk5/p25 complexes. Histone was used as a substrate to test kinase activity Cdk5 was immunoprecipitated from N2a cells overexpressing Cdk5/p35 and Cdk5/p25, following treatment with BLINK11 and BLINK15 inhibitors at concentrations of 50nM and 100nM, using a Cdk5 antibody. A kinase assay was subsequently conducted as described in Bankston et al.[53] Additionally, Cdk5 was precipitated from mouse brain lysates treated with BLINK11 and BLINK15 inhibitors. The immunoprecipitation was performed with 100 μL of A/G beads, 2 μg of Cdk5 antibody, and 150 μg of cell and brain lysates, with elution carried out using a urea elution buffer. The kinase assay was conducted using the ADP-Glo Kinase Assay Kit (Promega) with immunoprecipitated Cdk5, ATP, and 1–2 μg of histone as the substrate.

[4] = LC-MS of brain lysate and serum after intraperitoneal injection in HFD mouse model; type: in vivo; settings: C57BL/6J, ip, HFD mice, LC-MS peak area in brain lysate compared to serum
Method: To assess the BBB penetrability of BLINK11 and BLINK15 in the high-fat diet (HFD) mouse model, intraperitoneal injections were administered, and liquid chromatography-mass spectrometry (LC-MS) analysis was conducted on both brain lysate and serum samples (Figure 3). The LC-MS results depicted in Figures 3A and 3B showcase the peaks corresponding to the BLINK11 compound in the brain lysate and serum, respectively. Similarly, Figures 3C and 3D illustrate the peaks associated with the BLINK15 compound in the brain lysate and serum, respectively. […] These analyses provide a quantitative measure of the presence of the compounds in the respective samples. Furthermore, to ascertain the relative distribution of BLINK11 and BLINK15 in the brain compared to serum, the percentages of each compound present in the brain were calculated and plotted in a bar graph (Figure 3G). […]
Metabolites, comprising the entire spectrum within the lysate excluding proteins but inclusive of drugs, were extracted from plasma and brain tissue homogenate samples. […] Compounds were analyzed in these samples using a multiple reaction monitoring method (using parameters mentioned in Table S5) on a triple quadrupole hybrid ion trap mass spectrometer (QTRAP 6500+, SCIEX) coupled with an ExionLC UHPLC system (SCIEX). […] Relative quantification was performed using MultiQuantTM software v.3.0 (SCIEX). […]

| Kp [4] | SMILES | Glucose tolerance test (GTT) (HFD-fed mice [1]) | Grip strength (HFD-fed mice [2]) | viability at 24 h [3] | CDK5 activity in hippocampal lysate (CDK5) |
| --- | --- | --- | --- | --- | --- |
| 0.11 | COc1ccc(C(=O)C[C@@]2(O)C(=O)N(Cc3ccccc3)c3ccc(Br)cc32)cc1[N+](=O)[O-] [BLINK15] | significant rescue | rescue behavior | > 50% | significant reduction in CDK5 activity |
| 0.38 | O=C(COc1ccccc1C(=O)Nc1cccc(Cl)c1Cl)Nc1ccc(N2CCOCC2)c(Cl)c1 [BLINK11, 2-(2-((3-chloro-4-morpholinophenyl)amino)-2-oxoethoxy)-N-(2,3-dichlorophenyl)benzamide] | significant rescue | rescue behavior | > 50% | significant reduction in CDK5 activity |
